Values of other authors in patent US6309839A, “Screening methods for compounds that inhibit or stimulate helicase enzyme activity” (Board of Trustees of the University of Arkansas, priority 2000, dated 2001).

Molecular target: streptavidin (Streptomyces avidinii, UniProt P22629)
Settings: no helicase present

Chain of streptavidin (P22629 25-183): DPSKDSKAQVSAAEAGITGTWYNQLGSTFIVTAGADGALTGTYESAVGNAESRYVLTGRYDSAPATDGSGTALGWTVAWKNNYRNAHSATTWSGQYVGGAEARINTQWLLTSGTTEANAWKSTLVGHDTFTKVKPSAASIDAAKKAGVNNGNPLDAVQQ

SMILES: O=C(O)CCCC[C@@H]1SC[C@@H]2NC(=O)N[C@@H]21 [biotin]
- spontaneous dissociation rate of streptavidin from biotin: 0.00033 min⁻¹
